The test system of data set [1] is MMP1 expression by activated synovial fibroblasts (RASFs). The data set is described as follows: 'MMP assay': complex trigger-induced MMP1 expression by synovial fibroblasts (MMP1 ELISA). The data set is classed as cell-based. To be noted: Homo sapiens, Fibroblast; RASFs, complex trigger, 48 hrs; read-out: MMP1 IC50. A digest of the protocol:
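Synovial fibroblasts seeded at 3,000 cells/well, treated with compound, then triggered with supernatant of TNF-α-treated THP-1 cells, diluted in M199 with low FBS. MMP1 in supernatant quantified by sandwich ELISA with biotinylated anti-MMP1 and streptavidin-HRP chemiluminescent detection.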
A general note: An ELISA detects its analyte on a solid surface through an enzyme-linked reagent.

A short description of data set [2]: Tolerability of compounds in healthy mice (body weight). It is filed as in vivo. The settings on record: 100 mg/kg/d, po, up to two weeks, DBA/1J mice, FIG. 6A. The procedure: This protocol is designed to assess the tolerability of the compounds of the invention in healthy DBA/1J mice to determine the “therapeutic window” as defined by the dosing range between efficacious (mouse therapeutic Collagen-Induced Arthritis model) and toxic doses.
Compounds are prepared for a dosing regimen of 100 mg/kg/d, po, free base, in a standard volume of injection of 0.1 mL/10 g of mice (equivalent to 10 mg/1 mL). For solution preparations, compounds were dissolved in 0.5% methyl-cellulose and 1% DMSO, once a week.
Groups are randomized based on body weight and treated for up to two weeks. Each group contained 5 mice and received either test compound at 100 mg/kg, a comparison compound at 100 mg/kg/d (Compound A) or vehicle on a daily basis in a dosing volume of 200 μL per mouse.
Potential drug toxicity is monitored by observation every day and by recording body weights three times a week for weight loss. All statistical analyses were performed using Student's t test.
To assess the general tolerability of the treatments, the total body weight is followed throughout the course of the study.

Where only a bound is given, the exact number is not on record here.

Here are results for two compounds from patent US8012983B2, “Substituted triazolopyrazines useful for the treatment of degenerative and inflammatory diseases” (Galapagos NV, priority 2008, dated 2011).

One may read the IC50 as the point on the concentration scale where inhibition reaches its midpoint.

On to `CC(C)N1C[C@@H]2C[C@H]1CN2c1ccc(Nc2ncc(-c3ccc4c(c3)CNC4=O)n3ncnc23)cc1` [Compound 1, 5-{8-[4-((1S,4S)-5-Isopropyl-2,5-diaza-bicyclo[2.2.1]hept-2-yl)-phenylamino]-[1,2,4]triazolo[1,5-a]pyrazin-5-yl}-2,3-dihydro-isoindol-1-one], for which the IC50 in data set [1] is above 1000 nM. Also, in data set [2], the “General tolerability: total body weight compared to the vehicle” value is given as “no statistically significant difference”.

On to `CC(C)N1C[C@@H]2C[C@H]1CN2c1ccc(Nc2ncc(-c3coc(C(N)=O)c3)n3ncnc23)cc1` [Compound 2, 4-{8-[4-((1S,4S)-5-Isopropyl-2,5-diaza-bicyclo[2.2.1]hept-2-yl)-phenylamino]-[1,2,4]triazolo[1,5-a]pyrazin-5-yl}-furan-2-carboxamide], for which the IC50 in data set [1] was 1 to 1000 nM. In addition, in data set [2], the “General tolerability: total body weight compared to the vehicle” value was “no statistically significant difference”.
